Key:
[1] = target: T1, human TYRO3 (Homo sapiens, UniProt Q06418); experiment: HTRF KinEASE-TK biochemical potency assay, TYRO3; details: 1 nM TYRO3, 700 μM ATP, 800 nM TK Substrate-biotin
T1 construct: purchased Invitrogen
T1 sequence (Q06418 41-890): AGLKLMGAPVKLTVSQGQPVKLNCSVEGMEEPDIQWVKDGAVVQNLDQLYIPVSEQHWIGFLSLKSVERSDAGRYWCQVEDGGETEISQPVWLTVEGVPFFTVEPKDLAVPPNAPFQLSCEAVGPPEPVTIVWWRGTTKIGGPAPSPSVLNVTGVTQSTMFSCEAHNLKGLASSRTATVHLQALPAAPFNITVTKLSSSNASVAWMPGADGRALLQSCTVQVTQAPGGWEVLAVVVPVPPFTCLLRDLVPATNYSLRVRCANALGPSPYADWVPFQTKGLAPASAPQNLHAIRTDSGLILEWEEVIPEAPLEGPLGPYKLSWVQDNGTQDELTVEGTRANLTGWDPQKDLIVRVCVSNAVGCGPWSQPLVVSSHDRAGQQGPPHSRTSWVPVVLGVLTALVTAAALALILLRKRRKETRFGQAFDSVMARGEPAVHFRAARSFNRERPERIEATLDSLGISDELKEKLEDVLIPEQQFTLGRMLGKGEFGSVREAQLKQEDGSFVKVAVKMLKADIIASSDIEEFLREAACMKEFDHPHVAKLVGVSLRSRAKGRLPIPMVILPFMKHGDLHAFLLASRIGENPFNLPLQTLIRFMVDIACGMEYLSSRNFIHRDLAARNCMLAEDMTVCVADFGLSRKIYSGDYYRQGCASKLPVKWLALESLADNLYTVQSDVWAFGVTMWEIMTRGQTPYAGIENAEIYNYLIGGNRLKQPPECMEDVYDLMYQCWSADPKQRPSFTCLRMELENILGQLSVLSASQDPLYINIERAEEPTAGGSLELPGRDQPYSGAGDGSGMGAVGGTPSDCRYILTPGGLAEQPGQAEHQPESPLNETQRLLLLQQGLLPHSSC
Procedure, shortened: (§1)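 Recombinant human kinase preincubated 1 h at RT with compound, then reacted 2 h at RT with 800 nM biotin-TK substrate and 700 μM ATP (final; 5 nM AXL, 1 nM TYRO3 or MER) in HEPES pH 7.4, MgCl2, BSA, DTT, 1% DMSO. HTRF 665/620 ratio read; percent activity versus DMSO and pre-quenched controls.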

[2] = target: T2, Axl (Homo sapiens, UniProt P30530); experiment: HTRF KinEASE-TK biochemical potency assay, AXL; parameters: purchased Invitrogen; details: 5 nM AXL, 700 μM ATP, 800 nM TK Substrate-biotin
T2 sequence (P30530 26-894): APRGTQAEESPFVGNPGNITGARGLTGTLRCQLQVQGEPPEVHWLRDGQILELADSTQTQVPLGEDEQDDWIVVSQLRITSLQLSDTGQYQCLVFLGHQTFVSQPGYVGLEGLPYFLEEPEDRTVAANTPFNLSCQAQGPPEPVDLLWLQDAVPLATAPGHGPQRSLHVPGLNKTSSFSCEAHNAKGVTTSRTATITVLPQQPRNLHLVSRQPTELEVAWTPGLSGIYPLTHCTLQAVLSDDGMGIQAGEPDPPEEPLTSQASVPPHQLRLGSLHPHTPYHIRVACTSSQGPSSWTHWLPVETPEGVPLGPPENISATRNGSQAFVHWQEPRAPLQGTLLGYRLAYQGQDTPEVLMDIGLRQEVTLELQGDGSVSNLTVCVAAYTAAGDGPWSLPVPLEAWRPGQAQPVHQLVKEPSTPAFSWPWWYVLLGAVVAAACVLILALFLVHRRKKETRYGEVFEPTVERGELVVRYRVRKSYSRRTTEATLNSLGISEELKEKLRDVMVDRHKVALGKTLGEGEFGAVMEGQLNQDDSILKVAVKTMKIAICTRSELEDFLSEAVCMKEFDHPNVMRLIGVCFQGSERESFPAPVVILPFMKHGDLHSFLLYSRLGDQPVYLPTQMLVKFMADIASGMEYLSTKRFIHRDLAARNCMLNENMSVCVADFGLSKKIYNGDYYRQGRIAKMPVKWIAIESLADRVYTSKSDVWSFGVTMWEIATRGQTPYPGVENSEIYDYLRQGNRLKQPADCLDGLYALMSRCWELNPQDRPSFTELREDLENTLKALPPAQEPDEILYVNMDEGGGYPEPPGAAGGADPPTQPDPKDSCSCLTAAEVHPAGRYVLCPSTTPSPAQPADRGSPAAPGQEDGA
Procedure, shortened: as §1

Row | IC50 [1] [nM] | IC50 [2] [nM] | SMILES
1 | 100 to 1000 | < 100 | C[C@H]1CCCN1C1(C)CCc2ccc(-c3cnc4[nH]nc(-c5ccc(C(C)(C)O)c(Cl)c5)c4c3)cc2CC1 (stereo partly drawn) [Example 58, 2-[2-Chloro-4-(5-{7-methyl-7-[(2S)-2-methylpyrrolidin-1-yl]-6,7,8,9-tetrahydro-5H-benzo[7]annulen-2-yl}-1H-pyrazolo[3,4-b]pyridin-3-yl)phenyl]propan-2-ol]
2 | 100 to 1000 | < 100 | CCS(=N)(=O)c1ccc(-c2n[nH]c3ncc(-c4ccc5c(c4)CCC(C)(N4CCC[C@H]4C)CC5)cc23)cc1 (stereo partly drawn) [Example 100, Ethyl(imino)[4-(5-{7-methyl-7-[(2R)-2-methylpyrrolidin-1-yl]-6,7,8,9-tetrahydro-5H-benzo[7]annulen-2-yl}-1H-pyrazolo[3,4-b]pyridin-3-yl)phenyl]-λ^6-sulfanone]
3 | < 100 | < 100 | C[C@@H]1CCCN1C1(C)CCc2ccc(-c3cnc4[nH]nc(-c5ccc(C(C)(C)O)nc5)c4c3)cc2CC1 (stereo partly drawn) [Example 22, 2-[5-(5-{7-Methyl-7-[(2R)-2-methylpyrrolidin-1-yl]-6,7,8,9-tetrahydro-5H-benzo[7]annulen-2-yl}-1H-pyrazolo[3,4-b]pyridin-3-yl)pyridin-2-yl]propan-2-ol]
4 | < 100 | < 100 | C[C@@H]1CCCN1C1(C)CCc2ccc(-c3cnc4[nH]nc(-c5ccc(S(N)(=O)=O)cc5)c4c3)cc2CC1 (stereo partly drawn) [Example 95, 4-(5-(7-Methyl-7-((R)-2-methylpyrrolidin-1-yl)-6,7,8,9-tetrahydro-5H-benzo[7]annulen-2-yl)-1H-pyrazolo[3,4-b]pyridin-3-yl)benzenesulfonamide]
5 | 100 to 1000 | < 100 | COCCOc1ccc(-c2n[nH]c3ncc(-c4ccc5c(c4)CCC(C)(N4CCC[C@H]4C)CC5)cc23)cc1 (stereo partly drawn) [Example 110, 3-(4-(2-Methoxyethoxy)phenyl)-5-(7-methyl-7-((R)-2-methylpyrrolidin-1-yl)-6,7,8,9-tetrahydro-5H-benzo[7]annulen-2-yl)-1H-pyrazolo[3,4-b]pyridine]
6 | < 100 | < 100 | C[C@@H]1CCCN1C1(C)CCc2ccc(-c3cnc4[nH]nc(-c5ccc(C(N)=O)cc5)c4c3)cc2CC1 (stereo partly drawn) [Example 54, 4-(5-(7-Methyl-7-((R)-2-methylpyrrolidin-1-yl)-6,7,8,9-tetrahydro-5H-benzo[7]annulen-2-yl)-1H-pyrazolo[3,4-b]pyridin-3-yl)benzamide]
7 | > 1000 | > 1000 | CC(C)(O)c1ccc(-c2n[nH]c3ncc(-c4ccc5c(c4)CC4CCC(C5)C4N4CCCC4)cc23)cc1Cl (stereo not drawn) [Example 61, 2-(2-Chloro-4-{5-[13-(pyrrolidin-1-yl)tricyclo[8.2.1.0^3,8]trideca-3,5,7-trien-5-yl]-1H-pyrazolo[3,4-b]pyridin-3-yl}phenyl)propan-2-ol]
8 | 100 to 1000 | < 100 | CC1(N2CCC2)CCc2ccc(-c3cnc4[nH]nc(-c5ccc(S(=O)(=O)C6CC6)cc5)c4c3)cc2CC1 (stereo not drawn) [Example 7, 1-(2-{3-[4-(Cyclopropanesulfonyl)phenyl]-1H-pyrazolo[3,4-b]pyridin-5-yl}-7-methyl-6,7,8,9-tetrahydro-5H-benzo[7]annulen-7-yl)azetidine]
9 | < 100 | < 100 | CC(C)(O)c1ccc(-c2n[nH]c3ncc(-c4ccc5c(c4)CCC(N4CCCC4)CC5)cc23)cn1 (stereo not drawn) [Example 9, 2-(5-{5-[7-(Pyrrolidin-1-yl)-6,7,8,9-tetrahydro-5H-benzo[7]annulen-2-yl]-1H-pyrazolo[3,4-b]pyridin-3-yl}pyridin-2-yl)propan-2-ol]
10 | 100 to 1000 | < 100 | FC1CN(c2ccc(-c3c[nH]c4ncc(-c5ccc6c(c5)CC[C@@H](N5C7COCC5C7)CC6)cc34)cc2)C1 [Example 127, 6-[(7S)-2-{3-[4-(3-fluoroazetidin-1-yl)phenyl]-1H-pyrrolo[2,3-b]pyridin-5-yl}-6,7,8,9-tetrahydro-5H-benzo[7]annulen-7-yl]-3-oxa-6-azabicyclo[3.1.1]heptane]
11 | > 1000 | < 100 | C[C@@H]1CCCN1C1(C)CCc2ccc(-c3cnc4[nH]nc(-c5ccc(S(=O)(=O)C(F)(F)F)cc5)c4c3)cc2CC1 (stereo partly drawn) [Example 8, (2R)-2-Methyl-1-{7-methyl-2-[3-(4-trifluoromethanesulfonylphenyl)-1H-pyrazolo[3,4-b]pyridin-5-yl]-6,7,8,9-tetrahydro-5H-benzo[7]annulen-7-yl}pyrrolidine]
12 | < 100 | < 100 | COc1cc(-c2n[nH]c3ncc(-c4ccc5c(c4)CCC(C)(N4CCC[C@H]4C)CC5)cc23)ccc1C(N)=O (stereo partly drawn) [Example 53, 2-Methoxy-4-(5-(7-methyl-7-((R)-2-methylpyrrolidin-1-yl)-6,7,8,9-tetrahydro-5H-benzo[7]annulen-2-yl)-1H-pyrazolo[3,4-b]pyridin-3-yl)benzamide]
13 | 100 to 1000 | < 100 | O=S(=O)(c1ccc(-c2n[nH]c3ncc(-c4ccc5c(c4)CCN(C4CCOCC4)CC5)cc23)cc1)C1CC1 [Example 26, 7-{3-[4-(Cyclopropanesulfonyl)phenyl]-1H-pyrazolo[3,4-b]pyridin-5-yl}-3-(oxan-4-yl)-2,3,4,5-tetrahydro-1H-3-benzazepine]
14 | < 100 | < 100 | C[C@@H]1CCCN1C1CCc2ccc(-c3cnc4[nH]nc(-c5ccc(S(N)(=O)=O)c(Cl)c5)c4c3)cc2CC1 (stereo partly drawn) [Example 94, 2-Chloro-4-(5-(7-((R)-2-methylpyrrolidin-1-yl)-6,7,8,9-tetrahydro-5H-benzo[7]annulen-2-yl)-1H-pyrazolo[3,4-b]pyridin-3-yl)benzenesulfonamide]
15 | 100 to 1000 | < 100 | COCCOc1ccc(-c2n[nH]c3ncc(-c4ccc5c(c4)CC[C@@H](N4C6COCC4C6)CC5)cc23)cc1 [Example 123, 6-[(7S)-2-{3-[4-(2-methoxyethoxy)phenyl]-2H-pyrazolo[3,4-b]pyridin-5-yl}-6,7,8,9-tetrahydro-5H-benzo[7]annulen-7-yl]-3-oxa-6-azabicyclo[3.1.1]heptane]
16 | 100 to 1000 | < 100 | CC(C)(C)S(=O)(=O)c1ccc(-c2n[nH]c3ncc(-c4ccc5c(c4)CC[C@@H](N4C6COCC4C6)CC5)cc23)cc1 [Example 124, 6-[(7S)-2-{3-[4-(2-methylpropane-2-sulfonyl)phenyl]-2H-pyrazolo[3,4-b]pyridin-5-yl}-6,7,8,9-tetrahydro-5H-benzo[7]annulen-7-yl]-3-oxa-6-azabicyclo[3.1.1]heptane]
17 | < 100 | < 100 | Cc1cc(-c2n[nH]c3ncc(-c4ccc5c(c4)CC[C@@H](N4CCCC4)CC5)cc23)cc(C)c1C(=O)N1CCNCC1 [Example 55, 1-(2,6-Dimethyl-4-{5-[(7S)-7-(pyrrolidin-1-yl)-6,7,8,9-tetrahydro-5H-benzo[7]annulen-2-yl]-1H-pyrazolo[3,4-b]pyridin-3-yl}benzoyl)piperazine]
18 | 100 to 1000 | < 100 | CS(=O)(=O)c1ccc(-c2n[nH]c3ncc(-c4ccc5c(c4)CCN(C4CCCC4)CC5)cc23)cc1F [Example 32, 3-Cyclopentyl-7-(3-(3-fluoro-4-(methylsulfonyl)phenyl)-1H-pyrazolo[3,4-b]pyridin-5-yl)-2,3,4,5-tetrahydro-1H-benzo[d]azepine]

— US20240246967A1, “AXL COMPOUNDS” (ARCUS BIOSCIENCES, INC., priority 2021, published 2024)
